Tested on: Endogenous Huntingtin Protein
Assay: Endogenous Huntingtin Protein Assay (ELISA-based MSD electrochemiluminescence)
Type: cell-based
In short: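 MSD electrochemiluminescence sandwich ELISA: capture with MW1 (expanded polyQ) or MAB2166 at 1 µg/mL, samples incubated overnight at 4 °C. Detection by rabbit mAb #56565 then SULFO-TAG anti-rabbit antibody, each 0.25 µg/mL for 1 h at room temperature, read in buffer T on SI 6000 imager.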

[1] = Table 2, MSD plates coated with MW1 (expanded polyglutamine) or MAB2166 capture antibody, "inactive" = result above the detection limit of the assay

Row | SMILES | IC50 [1] [nM] | IC50 (Table 3, selected compounds from WO/2019/191229 A1, same MSD assay) [nM]
1 | [2H]C([2H])([2H])n1cc(-c2ccc(-c3cnc(N4CC5CCC(C4)N5C)nn3)c(O)c2)cn1 [Cpd 58, 2-[3-(8-methyl-3,8-diazabicyclo[3.2.1]octan-3-yl)-1,2,4-triazin-6-yl]-5-[l-(^2H3)methyl-1H-pyrazol-4-yl]phenol] | 678 | –
2 | CCC[C@H]1CN(c2ncc(-c3ccc(-c4cn[nH]c4)cc3O)nn2)CCN1 [Cpd 37, 2-{3-[(3S)-3-propylpiperazin-1-yl]-1,2,4-triazin-6-yl}-5-(1H-pyrazol-4-yl)phenol] | 50.7 | –
3 | CC(C)[C@H]1CN(c2ncc(-c3ccc(-c4cnn(C)n4)cc3O)nn2)CCN1 [Cpd 262, 5-(2-methyl-2H-1,2,3-triazol-4-yl)-2-{3-[(3S)-3-(propan-2-yl)piperazin-1-yl]-1,2,4-triazin-6-yl}phenol] | 94.2 | –
4 | C[C@@H]1CN(c2ncc(-c3ccc(-c4cn[nH]c4)cc3O)nn2)CCN1 [Cpd 166, 2-{3-[(3R)-3-methylpiperazin-1-yl]-1,2,4-triazin-6-yl}-5-(1H-pyrazol-4-yl)phenol] | 192 | –
5 | C[C@@H]1CN(c2ncc(-c3ccc(-n4nccn4)cc3O)nn2)C[C@H](C2CCC2)N1 [Cpd 237, 2-{3-[(3S,5R)-3-cyclobutyl-5-methylpiperazin-1-yl]-1,2,4-triazin-6-yl}-5-(2H-1,2,3-triazol-2-yl)phenol] | 104 | –
6 | CC1CN(c2ncc(-c3ccc(-c4cnn(C)c4)cc3O)nn2)CC(C)N1 (centres unmarked) [WO/2019/191229 A1 Cpd 263, reference compound] | – | 352
7 | Cc1cn2cc(-c3cnc(-c4cnc(N5CCN(C)CC5)nn4)c(O)c3)cc(C)c2n1 [Cpd 126, 5-(2,8-dimethylimidazo[1,2-a]pyridin-6-yl)-2-[3-(4-methylpiperazin-1-yl)-1,2,4-triazin-6-yl]pyridin-3-ol] | 100 | –
8 | CC[C@H]1CN(c2ncc(-c3ccc(-c4ncns4)cc3O)nn2)C[C@@H](C)N1 (single isomer, unassigned) [Cpd 267, 2-{3-[(3S,5R)-3-ethyl-5-methylpiperazin-1-yl]-1,2,4-triazin-6-yl}-5-(1,2,4-thiadiazol-5-yl)phenol or 2-{3-[(3R,5S)-3-ethyl-5-methylpiperazin-1-yl]-1,2,4-triazin-6-yl}-5-(1,2,4-thiadiazol-5-yl)phenol] | 145 | –
9 | [2H]C([2H])([2H])n1cc(-c2ccc(-c3cnc(N4CCN[C@@H](C(C)C)C4)nn3)c(O)c2)cn1 [Cpd 47, 5-[1-(Hz)methyl-1H-pyrazol-4-yl]-2-{3-[(3S)-3-(propan-2-yl)piperazin-1-yl]-1,2,4-triazin-6-yl}phenol] | 154 | –
10 | CC(C)[C@H]1CN(c2ncc(-c3ncc(-n4nccn4)cc3O)nn2)CCN1 [Cpd 175, 2-{3-[(3S)-3-(propan-2-yl)piperazin-1-yl]-1,2,4-triazin-6-yl}-5-(2H-1,2,3-triazol-2-yl)pyridin-3-ol] | 236 | –
11 | CC(C)[C@H]1CN(c2ncc(-c3ccc(-c4ncc(F)s4)cc3O)nn2)CCN1 [Cpd 196, 5-(5-fluoro-1,3-thiazol-2-yl)-2-{3-[(3S)-3-(propan-2-yl)piperazin-1-yl]-1,2,4-triazin-6-yl}phenol] | 492 | –
12 | Oc1cc(-c2ccncc2F)ccc1-c1cnc(N2CCN[C@@H](C3CC3)C2)nn1 [Cpd 178, 2-{3-[(3S)-3-cyclopropylpiperazin-1-yl]-1,2,4-triazin-6-yl}-5-(3-fluoropyridin-4-yl)phenol] | 300 | –

More lines, now with the values ahead:

Row | IC50 [1] [nM] | IC50 (Table 3, selected compounds from WO/2019/191229 A1, same MSD assay) [nM] | SMILES
13 | 38.9 | – | CC[C@H]1CN(c2ncc(-c3ccc(-n4nccn4)cc3O)nn2)CCN1 [Cpd 132, 2-{3-[(3S)-3-ethylpiperazin-1-yl]-1,2,4-triazin-6-yl}-5-(2H-1,2,3-triazol-2-yl)phenol]
14 | 3.8 | – | COc1cc(-c2ccc(-c3cnc(N4CCN[C@@H](C(C)C)C4)nn3)c(O)c2)nn2nc(C)nc12 [Cpd 70, 5-(8-methoxy-2-methyl[1,2,4]triazolo[1,5-b]pyridazin-6-yl)-2-{3-[(3S)-3-(propan-2-yl)piperazin-1-yl]-1,2,4-triazin-6-yl}phenol]
15 | 16.1 | – | COc1cc(-c2cnc(-c3cnc(N4CCN(C)CC4)nn3)c(O)c2)cc2cn(C)nc12 [Cpd 121, 5-(7-methoxy-2-methyl-2H-indazol-5-yl)-2-[3-(4-methylpiperazin-1-yl)-1,2,4-triazin-6-yl]pyridin-3-ol]
16 | 9.5 | – | [2H]C([2H])([2H])Oc1cc(-c2ccc(-c3cnc(N4CCN[C@@H](C(C)C)C4)nn3)c(O)c2)ncn1 [Cpd 10, 5-{6-[(^2H3)methyloxy]pyrimidin-4-yl}-2-{3-[(3S)-3-(propan-2-yl)piperazin-1-yl]-1,2,4-triazin-6-yl}phenol]
17 | 25.1 | – | CN1CCN(c2ncc(-c3ccc(-c4cn[nH]c4)cc3O)nn2)CC1C1CC1 (centres unmarked) [Cpd 27, 2-[3-(3-cyclopropyl-4-methylpiperazin-1-yl)-1,2,4-triazin-6-yl]-5-(1H-pyrazol-4-yl)phenol]
18 | 11.4 | – | CC(C)(O)C1CN(c2ncc(-c3ccc(-c4cn[nH]c4)cc3O)nn2)CCN1 (centres unmarked) [Cpd 13, 2-{3-[3-(2-hydroxypropan-2-yl)piperazin-1-yl]-1,2,4-triazin-6-yl}-5-(1H-pyrazol-4-yl)phenol]
19 | 50.5 | – | Oc1cc(-c2cn[nH]c2)ccc1-c1cnc(N2CCN[C@H](C3CC3)C2)nn1 [Cpd 136, 2-{3-[(3R)-3-cyclopropylpiperazin-1-yl]-1,2,4-triazin-6-yl}-5-(1H-pyrazol-4-yl)phenol]
20 | 30.1 | – | COc1csc(-c2ccc(-c3cnc(N4CCN[C@@H](C(C)C)C4)nn3)c(O)c2)n1 [Cpd 200, 5-(4-methoxy-1,3-thiazol-2-yl)-2-{3-[(3S)-3-(propan-2-yl)piperazin-1-yl]-1,2,4-triazin-6-yl}phenol]
21 | 7.3 | – | CC(C)(C)[C@H]1CN(c2ncc(-c3ccc(-c4c[nH]nc4F)cc3O)nn2)CCN1 [Cpd 125, 2-{3-[(3S)-3-tert-butylpiperazin-1-yl]-1,2,4-triazin-6-yl}-5-(3-fluoro-1H-pyrazol-4-yl)phenol]
22 | 19.8 | – | COc1cc(-c2ccc(-c3cnc(N4C[C@@H](C)N[C@@H](C(C)C)C4)nn3)c(O)c2)ccn1 [Cpd 257, 5-(2-methoxypyridin-4-yl)-2-{3-[(3R,5S)-3-methyl-5-(propan-2-yl)piperazin-1-yl]-1,2,4-triazin-6-yl}phenol]
23 | 28.4 | – | Cc1nc(-c2ccc(-c3cnc(N4CCN[C@@H](C5CC5)C4)nn3)c(O)c2)cs1 [Cpd 246, 2-{3-[(3S)-3-cyclopropylpiperazin-1-yl]-1,2,4-triazin-6-yl}-5-(2-methyl-1,3-thiazol-4-yl)phenol]
24 | 24.9 | – | CN1CCN(c2ncc(-c3ccc(-c4cnc5nn(C)cc5c4)cc3O)nn2)CC1 [Cpd 110, 2-[3-(4-methylpiperazin-1-yl)-1,2,4-triazin-6-yl]-5-(2-methyl-2H-pyrazolo[3,4-b]pyridin-5-yl)phenol]
25 | 5.5 | – | Cc1cn2nc(-c3ccc(-c4cnc(N5CCN(C)CC5)nn4)c(O)c3)ccc2n1 [Cpd 82, 5-(2-methylimidazo[1,2-b]pyridazin-6-yl)-2-[3-(4-methylpiperazin-1-yl)-1,2,4-triazin-6-yl]phenol]
26 | 13.4 | – | CC(C)[C@H]1CN(c2ncc(-c3ccc(-c4ccc5nccn5n4)cc3O)nn2)CCN1 [Cpd 102, 5-(imidazo[1,2-b]pyridazin-6-yl)-2-{3-[(3S)-3-(propan-2-yl)piperazin-1-yl]-1,2,4-triazin-6-yl}phenol]

From patent US20230234942A1, “COMPOUNDS FOR TREATING HUNTINGTON'S DISEASE” (PTC Therapeutics, Inc., priority 2020, published 2023)
